Tested on: mast cells
Assay: Inhibitory effect on histamine release from rat peritoneal mast cells stimulated with compound 48/80 (histamine by HPLC, diazotation method)
Assay type: cell-based
Details: histamine release induced by compound 48/80, mean of three measurements; for inhibition at 10 µg/mL: sample concentration 10 μg/ml
Excerpt: (1) With regard to the following substances, an inhibitory effect on type I allergic reaction was investigated by investigating an inhibitory effect on histamine release from mast cells. • <1> Adenosine • <2> Guanosine • <3> Cytidine • <4> Uridine • <5> Adenosine monophosphate (AMP) • <6> Adenosine diphosphate (ADP) • <7> Adenosine triphosphate (ATP) • <8> Adenosine derived from Phellinus linteus (described later as Compound A) • <9> N-hydroxy-N-methyl-adenosine derived from Phellinus linteus (described later as Compound B) • <10> A commercially available histamine inhibitor (brand name: Intal, major component: disodium cromoglycate, manufacturer: Fujisawa Pharmaceutical Co., Ltd.)
(a) For a test animal, a male Wister rat (at 6 to 8 weeks of age) was used.
After a rat was sacrificed by exsanguination under anesthesia with ether, 15 ml of Tyrode Buffer was injected into the peritoneal cavity of the rat and intraperitoneal cavity fluid was recovered. Ten ml of Tyrode Buffer was further injected into the peritoneal cavity of the rat. Intraperitoneal cavity fluid was further recovered and combined with the intraperitoneal fluid recovered before. This intraperitoneal fluid was centrifuged at 800 rpm for 10 minutes at 4° C. and the supernatant was removed and filtrated.
Further, cell suspension, to which Tyrode Buffer was added, was centrifuged at 800 rpm for 10 minutes at 4° C., the supernatant was removed and the cells were homogenized. This cell suspension was measured with an erythrocytometer, and prepared to be 8×10^6 cells/ml for use.
The cell suspension (370 μl) dispensed into a 1.2 ml-microtube was pre-incubated in a water bath at 37° C.
Ten minutes later, 20 μl of sample prepared at each concentration was added.
Further, 10 minutes later, 10 μl of compound 48/80 (a mast cell stimulation agent; manufactured by Wako Pure Chemical Industries, Ltd.) (0.5 μg/ml), which is an allergy inducer, was added.
Fifteen minutes later, the reaction was terminated on ice.
Further, to remove the mast cells, centrifugation was carried out at 13,000 rpm for 15 minutes at 4° C. and the supernatant was recovered.
This supernatant was used as a sample for diazotation in HPLC analysis.
An equal amount of 20 mM p-nitroaniline hydrochloric acid solution and 200 mM sodium nitrite aqueous solution were mixed well (diazo reagent).
To 10 μl of the diazo reagent, 20 μl of the foregoing sample for (histamine) diazotation was added and mixed well by using a vortex mixer.
Further, 30 μl of sodium carbonate ethanol solution was added and mixed well by using a vortex mixer.
This solution (20 μl) was used in HPLC analysis.
(c) The analysis of histamine was carried out by the diazotation method (Specific Determination of Histamine in Fish by High-performance Liquid Chromatography after Diazo Coupling: Biosci. Biotech. Biochem. 59 (7) 1208-1210 (1995)).
(4) The results of the inhibitory effects on histamine release from mast cells of a specified concentration of <1> adenosine, <2> guanosine, <3> cytidine, <4> uridine, <5> adenosine monophosphate (AMP), <6> adenosine diphosphate (ADP), <7> adenosine triphosphate (ATP) (<1> to <7> substances were from Wako Pure Chemical Industries, Ltd.), <8> adenosine derived from Phellinus linteus (described later as Compound A), <9> N-hydroxy-N-methyl-adenosine derived from Phellinus linteus (described later as Compound B), and <10> a commercially available histamine inhibitor (brand name: Intal, major component: sodium cromoglycate, manufacturer: Fujisawa Pharmaceutical Co., Ltd.) are shown in Table 2. The inhibition ratios shown in Table 2 are mean values of three measurement values in each case.
The value of inhibition ratio was calculated from the following calculation formula.
Calculation Formula: (1−(peak integral value of sample)/(peak integral value of control))×100

[1] = Rattus norvegicus, Mast cell, sample concentration 5 μg/ml, read-out: Inhibition Ratio (%)
[2] = Rattus norvegicus, Mast cell, read-out: Inhibition Ratio (%)

Work on `CN(O)c1ncnc2c1ncn2[C@@H]1O[C@H](CO)[C@@H](O)[C@H]1O` [N-hydroxy-N-methyl-adenosine] yielded an inhibition at 5 µg/mL [1] of 27%.
For `Nc1ncnc2c1ncn2[C@@H]1O[C@H](COP(=O)(O)O)[C@@H](O)[C@H]1O` [Adenosine monophosphate, adenosine 5′-monophosphate], the inhibition at 10 µg/mL [2] was 54.9%.
In the case of `Nc1ncnc2c1ncn2[C@@H]1O[C@H](CO)[C@@H](O)[C@H]1O` [Adenosine], the inhibition at 1 µg/mL (Rattus norvegicus, Mast cell, sample concentration 1 μg/ml, read-out: Inhibition Ratio (%)) is reported as 27.5%, the inhibition at 20 µg/mL (Rattus norvegicus, Mast cell, sample concentration 20 μg/ml, read-out: Inhibition Ratio (%)) is reported as 59.3% and the inhibition at 50 µg/mL (Rattus norvegicus, Mast cell, sample concentration 50 μg/ml, read-out: Inhibition Ratio (%)) is reported as 74.7%. The “Inhibition Ratio (%)” value (sample concentration 5 μg/ml) was 43.8%.
`Nc1ncnc2c1ncn2[C@@H]1O[C@H](COP(=O)(O)OP(=O)(O)O)[C@@H](O)[C@H]1O` [Adenosine diphosphate, adenosine 5′-diphosphate] showed an inhibition at 10 µg/mL [2] of 47.8%.
`Nc1ncnc2c1ncn2[C@@H]1O[C@H](COP(=O)(O)OP(=O)(O)OP(=O)(O)O)[C@@H](O)[C@H]1O` [Adenosine triphosphate, adenosine 5′-triphosphate] gave an inhibition at 10 µg/mL [2] of 40%.
In the case of `Nc1ccn([C@@H]2O[C@H](CO)[C@@H](O)[C@H]2O)c(=O)n1` [Cytidine], the inhibition at 5 µg/mL [1] is reported as 38%.
With `O=c1ccn([C@@H]2O[C@H](CO)[C@@H](O)[C@H]2O)c(=O)[nH]1` [Uridine] the inhibition at 5 µg/mL [1] was 34%.
In the case of `Nc1ncnc2c1ncn2[C@@H]1O[C@H](CO)[C@@H](O)[C@H]1O` [Adenosine derived from Phellinus linteus, adenosine], the inhibition at 5 µg/mL [1] is reported as 41.5%.
`Nc1nc2c(ncn2[C@@H]2O[C@H](CO)[C@@H](O)[C@H]2O)c(=O)[nH]1` [Guanosine] showed an inhibition at 5 µg/mL [1] of 39%.

— patent US20050192244A1, “Histamine release inhibitor” (priority 2002, published 2005)
